Laboratory results reported in patent US11319324B2, “Pyrazolo-pyrrolo-pyrimidine-dione derivatives as P2X3 inhibitors” (Bayer Aktiengesellschaft, priority 2017, dated 2022).

Target: T1, human P2X3 receptor (Homo sapiens, UniProt P56373)
T1 sequence (P56373 1-397): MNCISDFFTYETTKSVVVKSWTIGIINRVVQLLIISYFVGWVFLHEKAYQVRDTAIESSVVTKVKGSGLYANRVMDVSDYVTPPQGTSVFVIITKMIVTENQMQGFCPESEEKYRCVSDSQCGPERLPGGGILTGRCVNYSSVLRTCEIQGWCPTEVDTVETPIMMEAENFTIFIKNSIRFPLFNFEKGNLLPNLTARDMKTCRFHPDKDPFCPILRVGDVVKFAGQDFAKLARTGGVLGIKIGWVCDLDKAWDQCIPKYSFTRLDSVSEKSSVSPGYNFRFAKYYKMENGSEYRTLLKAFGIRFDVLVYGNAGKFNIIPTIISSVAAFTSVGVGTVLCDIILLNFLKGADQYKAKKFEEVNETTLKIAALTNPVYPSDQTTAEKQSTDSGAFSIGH
Test: Intracellular calcium measurement to assess antagonist activity at human P2X3 receptors (hP2X3 CHO), photina luminescence
Type: cell-based
Parameters: expressed in transfected cells; host or cells: Chinese hamster ovary (CHO) cells
Conditions: column 2), CHO cells, agonist α,β-methylene-ATP at EC50
Procedure: 2) Intracellular Calcium Measurement to Assess Antagonist Activity at Human P2X3 Receptors (hP2X3 CHO)
The determination of antagonistic activity at the P2X3 receptor of the compounds of the invention was performed by use of a recombinant cell line. This cell line derives originally from the Chinese hamster ovary (CHO) cell line (Tjio J. H.; Puck T. T., 1958, J. Exp. Med. 108: 259-271). The cell line is stably transfected with the human P2X3 receptor and a calcium-sensitive photoprotein, mitochondrial photina, which, after reconstitution with the cofactor coelenterazine, emits light in dependence of calcium binding [Bovolenta S, Foti M, Lohmer S, Corazza S., J Biomol Screen. 2007 August; 12(5):694-704]. The strength of the photina luminescence signal corresponds to the level of receptor activation upon agonist binding. An inhibitor would decrease the signal depending on its potency and concentration. Bioluminescence was detected using a suitable luminometer [Milligan G, Marshall F, Rees S, Trends in Pharmacological Sciences 17,235-237 (1996)].
On the day before the assay, the cells were plated out in culture medium (DMEM/F12 (PAN, P04-41451), 10% FCS) in 384-well microtiter plates and kept in a cell incubator (96% humidity, 5% v/v CO2, […]). On the day of the assay medium was replaced by 2 mM Ca-tyrode buffer containing 5 μg/ml coelenterazine. Plates were incubated for 3 hours at 37° C. (96% humidity, 5% v/v CO2). […] The resulting light signal was measured immediately in the luminometer.

IC50	SMILES
57 nM	CCc1cc2n(CC(=O)Nc3ccc(F)cn3)c3c(c(=O)n2n1)CN(CC)C3=O [Example 126]
580 nM	CCc1cc2n(CC(=O)Nc3ccc(F)cn3)c3c(c(=O)n2n1)CN(CC1CN(C(C)=O)C1)C3=O [Example 268]
25 nM	CC(C)N1Cc2c(n(CC(=O)Nc3ccc(F)cn3)c3cc(C(=O)Nc4ccccc4Cl)nn3c2=O)C1=O [Example 203]
59 nM	CNc1cc2n(CC(=O)Nc3ccc(F)cn3)c3c(c(=O)n2n1)CN(C(C)C)C3=O [Example 174]
145 nM	CC(C)N1Cc2c(n(CC(=O)Nc3ccc(F)cn3)c3cc(C(=O)NCCCO)nn3c2=O)C1=O [Example 224]
415 nM	CCc1cc2n(CC(=O)Nc3ccc(F)cn3)c3c(c(=O)n2n1)CN(CC(=O)N1CCOCC1)C3=O [Example 291, 2-{2-ethyl-6-[2-(morpholin-4-yl)-2-oxoethyl]-5,8-dioxo-5,6,7,8-tetrahydro-4H-pyrazolo[1,5-a]pyrrolo[3,4-d]pyrimidin-4-yl}-N-(5-fluoropyridin-2-yl)acetamide]
470 nM	CCc1cc2n(CC(=O)Nc3ccc(F)cn3)c3c(c(=O)n2n1)CN(C1CCS(=O)(=O)CC1)C3=O [Example 119]
155 nM	CCc1cc2n(CC(=O)Nc3ccc(F)cn3)c3c(c(=O)n2n1)CN(C(C)CO)C3=O (racemic) [Example 137, 2-{2-ethyl-6-[(±)-1-hydroxypropan-2-yl]-5,8-dioxo-5,6,7,8-tetrahydro-4H-pyrazolo[1,5-a]pyrrolo[3,4-d]pyrimidin-4-yl}-N-(5-fluoropyridin-2-yl)acetamide]
1950 nM	CCc1cc2n(CC(=O)Nc3ccc(F)cn3)c3c(c(=O)n2n1)CN(C1CCNCC1)C3=O [Example 237]
205 nM	CCc1cc2n(CC(=O)Nc3ccc(F)cn3)c3c(c(=O)n2n1)CN(CC1CN(C(=O)OC(C)(C)C)C1)C3=O [Example 115]
70 nM	COC[C@H](C)N1Cc2c(n(CC(=O)Nc3ccc(F)cn3)c3cc(C(=O)Nc4ncccn4)nn3c2=O)C1=O [Example 217]
53 nM	CC(C)N1Cc2c(n(CC(=O)Nc3ccc(F)cn3)c3cc(CN4CCCC4=O)nn3c2=O)C1=O [Example 232, 2-{5,8-dioxo-2-[(2-oxopyrrolidin-1-yl)methyl]-6-(propan-2-yl)-5,6,7,8-tetrahydro-4H-pyrazolo[1,5-a]pyrrolo[3,4-d]pyrimidin-4-yl}-N-(5-fluoropyridin-2-yl)acetamide]
26 nM	CC(C)N1Cc2c(n(CC(=O)Nc3ccc(F)cn3)c3cc(C(=O)Nc4ccon4)nn3c2=O)C1=O [Example 211]
10 nM	CCOC(=O)c1cc2n(CC(=O)Nc3ccc(F)cn3)c3c(c(=O)n2n1)CN(Cc1ccccn1)C3=O [Example 124]
398 nM	Cc1cccnc1-c1cc2n(CC(=O)Nc3ccc(F)cn3)c3c(c(=O)n2n1)CN(C(C)C)C3=O [Example 163]
585 nM	CCc1cc2n(CC(=O)Nc3ccc(F)cn3)c3c(c(=O)n2n1)CN(C1CN(C(=O)OC(C)(C)C)C1)C3=O [Example 116]
45 nM	O=C(Cn1c2c(c(=O)n3nc(C(=O)Nc4ccccc4F)cc13)CN(CCN1CCOCC1)C2=O)Nc1ccc(F)cn1 [Example 220]
22 nM	CC(C)N1Cc2c(n(CC(=O)Nc3ccc(F)cn3)c3cc(C(=O)Nc4cccnn4)nn3c2=O)C1=O [Example 212]
585 nM	CCc1cc2n(CC(=O)Nc3ccc(F)cn3)c3c(c(=O)n2n1)CN(CC1CNC1)C3=O [Example 242]
36 nM	CC(C)N1Cc2c(n(CC(=O)Nc3ccc(F)cn3)c3cc(C4=COCC4)nn3c2=O)C1=O [Example 144, 2-[2-(4,5-dihydrofuran-3-yl)-5,8-dioxo-6-(propan-2-yl)-5,6,7,8-tetrahydro-4H-pyrazolo[1,5-a]pyrrolo[3,4-d]pyrimidin-4-yl]-N-(5-fluoropyridin-2-yl)acetamide]
113 nM	CCc1cc2n(CC(=O)Nc3ccc(F)cn3)c3c(c(=O)n2n1)CN(CC1CCC1)C3=O [Example 113]
247 nM	CCc1cc2n(CC(=O)Nc3ccc(F)cn3)c3c(c(=O)n2n1)CN(CC(=O)N(C)C1CC1)C3=O [Example 294]
56 nM	CCc1cc2n(CC(=O)Nc3ccc(F)cn3)c3c(c(=O)n2n1)CN(C(C)(C)CO)C3=O [Example 136, 2-[2-ethyl-6-(1-hydroxy-2-methylpropan-2-yl)-5,8-dioxo-5,6,7,8-tetrahydro-4H-pyrazolo[1,5-a]pyrrolo[3,4-d]pyrimidin-4-yl]-N-(5-fluoropyridin-2-yl)acetamide]

IC50	SMILES
28 nM	CC(C)N1Cc2c(n(CC(=O)Nc3ccc(F)cn3)c3cc(C(=O)Nc4ncccn4)nn3c2=O)C1=O [Example 210]
230 nM	CCc1cc2n(CC(=O)Nc3ccc(F)cn3)c3c(c(=O)n2n1)CN(C1CNC1)C3=O [Example 243]
240 nM	CCc1cc2n(CC(=O)Nc3ccc(F)cn3)c3c(c(=O)n2n1)CN(CC(=O)N(C)CC1CC1)C3=O [Example 293]
93 nM	CC(C)N1Cc2c(n(CC(=O)Nc3ccc(F)cn3)c3cc(C(=O)Nc4ccc(Cl)cn4)nn3c2=O)C1=O [Example 213]
1400 nM	CC(C)N1Cc2c(n(CC(=O)Nc3ccc(F)cn3)c3cc(C(=O)O)nn3c2=O)C1=O [Example 84, 4-{2-[(5-Fluoropyridin-2-yl)amino]-2-oxoethyl}-5,8-dioxo-6-(propan-2-yl)-5,6,7,8-tetrahydro-4H-pyrazolo[1,5-a]pyrrolo[3,4-d]pyrimidine-2-carboxylic acid]
1150 nM	CCc1cc2n(CC(=O)Nc3ccc(F)cn3)c3c(c(=O)n2n1)CN(C1CCN(C2CCC2)C1)C3=O (stereo not drawn) [Example 254]
1650 nM	CCc1cc2n(CC(=O)Nc3ccc(F)cn3)c3c(c(=O)n2n1)CN(C1CCN(C)CC1)C3=O [Example 87]
33 nM	CC(C)N1Cc2c(n(CC(=O)Nc3ccc(F)cn3)c3cc(C4=CCS(=O)(=O)CC4)nn3c2=O)C1=O [Example 145, 2-[2-(1,1-dioxo-1,2,3,6-tetrahydro-1lambda^6-thiopyran-4-yl)-5,8-dioxo-6-(propan-2-yl)-5,6,7,8-tetrahydro-4H-pyrazolo[1,5-a]pyrrolo[3,4-d]pyrimidin-4-yl]-N-(5-fluoropyridin-2-yl)acetamide]
43 nM	CCc1cc2n(CC(=O)Nc3ccc(F)cn3)c3c(c(=O)n2n1)CN(C)C3=O [Example 127]
47 nM	CC(C)N1Cc2c(n(CC(=O)Nc3ccc(F)cn3)c3cc(C(=O)Nc4cccc(F)c4)nn3c2=O)C1=O [Example 206]
240 nM	Cc1cc2n(CC(=O)Nc3ccc(F)cn3)c3c(c(=O)n2n1)CN(CC1CCO1)C3=O (stereo not drawn) [Example 125]
135 nM	COc1ccccc1NC(=O)c1cc2n(CC(=O)Nc3ccc(F)cn3)c3c(c(=O)n2n1)CN(C(C)C)C3=O [Example 202]
127 nM	CC(C)N1Cc2c(n(CC(=O)Nc3ccc(F)cn3)c3cc(C4CN(C)C4)nn3c2=O)C1=O [Example 262]
94 nM	CCOC(=O)c1cc2n(CC(=O)Nc3ccc(F)cn3)c3c(c(=O)n2n1)CN(C1CCOCC1)C3=O [Example 122]
565 nM	CCc1cc2n(CC(=O)Nc3ccc(F)cn3)c3c(c(=O)n2n1)CN(C1CN(S(C)(=O)=O)C1)C3=O [Example 273]
225 nM	O=C(Cn1c2c(c(=O)n3nc(Br)cc13)CN(CCN1CCOCC1)C2=O)Nc1ccc(F)cn1 [Example 111]
143 nM	O=C(Cn1c2c(c(=O)n3nc(C(F)(F)F)cc13)CN(CCN1CCOCC1)C2=O)Nc1ccc(F)cn1 [Example 103]
57 nM	CC(C)N1Cc2c(n(CC(=O)Nc3ccc(F)cn3)c3cc([C@@H]4CCOC4)nn3c2=O)C1=O (single isomer, unassigned) [Example 280, 2-{5,8-dioxo-2-[oxolan-3-yl]-6-(propan-2-yl)-5,6,7,8-tetrahydro-4H-pyrazolo[1,5-a]pyrrolo[3,4-d]pyrimidin-4-yl}-N-(5-fluoropyridin-2-yl)acetamide]
18 nM	O=C(Cn1c2c(c(=O)n3nc(-c4ccncc4)cc13)CN(CCN1CCOCC1)C2=O)Nc1ccc(F)cn1 [Example 132]
22 nM	CC(C)N1Cc2c(n(CC(=O)Nc3ccc(F)cn3)c3cc(Cc4ccccn4)nn3c2=O)C1=O [Example 133]
36 nM	Cc1ccccc1NC(=O)c1cc2n(CC(=O)Nc3ccc(F)cn3)c3c(c(=O)n2n1)CN(C(C)C)C3=O [Example 204]
53 nM	O=C(Cn1c2c(c(=O)n3nc(-c4ccncc4)cc13)CN(Cc1ccc(F)cc1)C2=O)Nc1ccc(F)cn1 [Example 129]
